Publication PMC8023496, “Immune mediation of HMG-like DSP1 via Toll-Spätzle pathway and its specific inhibition by salicylic acid analogs” (PLoS Pathogens, 2021)

Molecular target: rSe-DSP1 (Se-DSP1; dorsal switch protein 1)
Experiment: thermal shift assay (Protein Thermal Shift dye), melting temperature vs ligand concentration
Parameters: species or system Spodoptera exigua
Details: 500 ng protein; ligand 0-8 uM; compounds dissolved in DMSO

| Kd | SMILES |
| --- | --- |
| 0.119 ± 0.02 µM | CCOc1cc(O)ccc1OC [3-ethoxy-4-methoxyphenol] |
| 0.238 ± 0.04 µM | O=C(O)c1ccccc1O [salicylic acid] |
